The subject of the assay is 519858-162-T-J1-PDC spheroid growth inhibition. The assay is described as follows: Anticancer human tumor 519858-162-T-J1-PDC patient-derived colon adenocarcinoma cell line growth inhibition [TAK]. The following applies: spheroids with HUVEC and MSC; for viability, T/C: stronger effect = lower value. The gist of the method: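 Spheroids of 60% malignant cells, 25% HUVEC and 15% hMSC were exposed to targeted agents combined with TAK-243 or ipatasertib. Concentrations started at or near clinical Cmax (10 microM if unknown) and descended in half-log steps.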

Setting [1] is: curve of first compound, second compound 0.3 µM.
[2] abbreviates: curve of first compound, second compound 0.949 µM.
[3] abbreviates: curve of first compound, second compound 3 µM.
The mark [4] stands for this setting: curve of first compound, second compound 9.49 µM.
The mark [5] stands for this setting: curve of first compound, second compound 30 µM.

Values joined by “and” are separate entries in the source; they are usually repeats but may differ in a detail not shown here. Equal values may be shown once. A value given as a limit tells only on which side of the number the result lay.
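Note: each agent tested in combination with TAK-243 or ipatasertib; spheroids exposed to drugs for 7 days.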

Regarding `CC(=O)Nc1cccc(-n2c(=O)n(C3CC3)c(=O)c3c(Nc4ccc(I)cc4F)n(C)c(=O)c(C)c32)c1` + CC(C)NCC(C(=O)N1CCN(c2ncnc3c2C(C)CC3O)CC1)c1ccc(Cl)cc1, the IC50 (as a rule, the concentration at which inhibition is half-maximal) is, setting by setting: under setting [1], 5.63 nM; under setting [2], 5.24 nM; under setting [3], 5.89 nM; under setting [4], 6.24 nM; under setting [5], 9.07 nM. Moreover, the viability, T/C (commonly the ratio of treated to control) was found to be 78.5% (second compound 0.3 µM, first compound 94.9 pM); 87.2% (second compound 0.3 µM, first compound 0.0003 µM); 72% (second compound 0.3 µM, first compound 0.000949 µM); 62.6% (second compound 0.3 µM, first compound 0.003 µM); 40.1% (second compound 0.3 µM, first compound 0.00949 µM); 18.1% (second compound 0.3 µM, first compound 0.03 µM). Besides, the viability, T/C is, setting by setting: (second compound 0.949 µM, first compound 94.9 pM) 99.8%; (second compound 0.949 µM, first compound 0.0003 µM) 107%; (second compound 0.949 µM, first compound 0.000949 µM) 69%; (second compound 0.949 µM, first compound 0.003 µM) 66.1%; (second compound 0.949 µM, first compound 0.00949 µM) 37.8%; (second compound 0.949 µM, first compound 0.03 µM) 18.4%. Besides, the viability, T/C (second compound 3 µM, first compound 94.9 pM) stood at 82.7%; the viability, T/C (second compound 3 µM, first compound 0.0003 µM) amounted to 97.7%; the viability, T/C (second compound 3 µM, first compound 0.000949 µM) was 86.2%; the viability, T/C (second compound 3 µM, first compound 0.003 µM) was 65.6%; the viability, T/C (second compound 3 µM, first compound 0.00949 µM) worked out at 39.5%; the viability, T/C (second compound 3 µM, first compound 0.03 µM) is 26.5%. Further, the viability, T/C reads like this: (second compound 9.49 µM, first compound 94.9 pM) 70.6%; (second compound 9.49 µM, first compound 0.0003 µM) 78.9%; (second compound 9.49 µM, first compound 0.000949 µM) 73.2%; (second compound 9.49 µM, first compound 0.003 µM) 62.7%; (second compound 9.49 µM, first compound 0.00949 µM) 42.5%; (second compound 9.49 µM, first compound 0.03 µM) 18.2%. The viability, T/C (second compound 30 µM, first compound 94.9 pM) is 109%; the viability, T/C (second compound 30 µM, first compound 0.0003 µM) is 77.6%; the viability, T/C (second compound 30 µM, first compound 0.000949 µM) amounted to 95.4%; the viability, T/C (second compound 30 µM, first compound 0.003 µM) is 68.5%; the viability, T/C (second compound 30 µM, first compound 0.00949 µM) was found to be 48.3%; the viability, T/C (second compound 30 µM, first compound 0.03 µM) is 21.8%.

For the compound `CC(C)(C)c1nc(-c2cccc(NS(=O)(=O)c3c(F)cccc3F)c2F)c(-c2ccnc(N)n2)s1`, the viability, T/C is 116% and 110% (compound 0.0316 µM); 134% and 144% (compound 0.1 µM); 131% and 137% (compound 0.316 µM); 132% and 150% (compound 1 µM); 99% and 94.1% (compound 3.16 µM); 53.2% and 71.4% (compound 10 µM). In addition, the IC50 (curve of compound) is > 10000 nM.

Turning to `CCCS(=O)(=O)Nc1ccc(F)c(C(=O)c2c[nH]c3ncc(-c4ccc(Cl)cc4)cc23)c1F`, the viability, T/C by setting is: (compound 0.316 µM) 99.3% and 108%; (compound 1 µM) 91.4% and 91.7%; (compound 3.16 µM) 105% and 126%; (compound 10 µM) 91.9% and 93%; (compound 31.6 µM) 114% and 129%; (compound 100 µM) 132% and 140%. Also, for the setting “curve of compound”, the IC50 is > 100000 nM.

Turning to `CCCS(=O)(=O)Nc1ccc(F)c(C(=O)c2c[nH]c3ncc(-c4ccc(Cl)cc4)cc23)c1F` + CC(C)NCC(C(=O)N1CCN(c2ncnc3c2C(C)CC3O)CC1)c1ccc(Cl)cc1, the IC50 under setting [1] is > 100000 nM; the IC50 under setting [2] was > 100000 nM; the IC50 under setting [3] was > 100000 nM; the IC50 under setting [4] is > 100000 nM; the IC50 under setting [5] stood at 30400 nM. Further, the viability, T/C runs as follows: (second compound 0.3 µM, first compound 0.316 µM) 85.8%; (second compound 0.3 µM, first compound 1 µM) 109%; (second compound 0.3 µM, first compound 3.16 µM) 95.8%; (second compound 0.3 µM, first compound 10 µM) 109%; (second compound 0.3 µM, first compound 31.6 µM) 90.6%; (second compound 0.3 µM, first compound 100 µM) 103%. The viability, T/C was found to be 74.8% (second compound 0.949 µM, first compound 0.316 µM); 99.7% (second compound 0.949 µM, first compound 1 µM); 118% (second compound 0.949 µM, first compound 3.16 µM); 83.1% (second compound 0.949 µM, first compound 10 µM); 51% (second compound 0.949 µM, first compound 31.6 µM); 99.9% (second compound 0.949 µM, first compound 100 µM). Further, the viability, T/C reads like this: (second compound 3 µM, first compound 0.316 µM) 106%; (second compound 3 µM, first compound 1 µM) 102%; (second compound 3 µM, first compound 3.16 µM) 114%; (second compound 3 µM, first compound 10 µM) 82.8%; (second compound 3 µM, first compound 31.6 µM) 99.8%; (second compound 3 µM, first compound 100 µM) 113%. The viability, T/C runs as follows: (second compound 9.49 µM, first compound 0.316 µM) 99.8%; (second compound 9.49 µM, first compound 1 µM) 103%; (second compound 9.49 µM, first compound 3.16 µM) 84.8%; (second compound 9.49 µM, first compound 10 µM) 88.1%; (second compound 9.49 µM, first compound 31.6 µM) 77.9%; (second compound 9.49 µM, first compound 100 µM) 96%. Besides, the viability, T/C amounted to 76.3% (second compound 30 µM, first compound 0.316 µM); 101% (second compound 30 µM, first compound 1 µM); 94.9% (second compound 30 µM, first compound 3.16 µM); 61% (second compound 30 µM, first compound 10 µM); 23.6% (second compound 30 µM, first compound 31.6 µM); 75.5% (second compound 30 µM, first compound 100 µM).

The record behind these values is PubChem BioAssay AID2060354 (Molecular Pharmacology Branch, DTP, NCI, 2025).
